One molecule from US20090061022A1, “Pharmaceutical composition comprising arsenite for the treatment of malignancy” (priority 2004, published 2009) can be followed below.

The subject of this data set is ALL-SCID 4. The experiment in a line: Anticancer activity in human leukemia model ALL-SCID 4. The settings on record: 100 mg/kg i.p., day 25. An excerpt: Anticancer activity of the sodium meta-arsenite and arsenic trioxide against two human paediatric acute lymphoblastic leukemia (ALL) models in vivo, ALL-SCID 4 was investigated to compare.
Male NOD/SCID mice (deficient in T and B lymphocytes, NK cells and functional macrophages) were transplanted s.c. on day 0 with fragments of ALL-SCID 4 cancers, which were obtained from mice used for routine passage of the cancers. Mice were randomized to the scheduled treatment groups.
Sodium meta-arsenite was administered orally at 2, 4 and 6 mg/kg/day (⅓ MTD, ⅔ MTD and MTD) once every day from day 34-54 after transplantation. The vehicle control (5% glucose in water) was administered i.p. (10 ml/kg).
Sodium meta-arsenite was dissolved in ready-to-use sterile infusion (5% (w/v) glucose in aqua injectabila). Arsenic trioxide was dissolved in 25 mM NaOH then dissolved in 5% glucose in aqua injectabila. The solutions were prepared freshly on the day of therapy for each administration.

Structures are written as SMILES. Marks after values point to notes of the source that are not given here.

`O=P1(N(CCCl)CCCl)NCCCO1` (stereo not drawn) [Cyclophosphamide, reference compound]: the “BW loss % (day)” value is listed as “+4 (34) %”, the Drug-related deaths is 0/8 and the T/C % is 4* %.
